From ChEMBL document CHEMBL1129620 (J Med Chem, 1996) come the findings set out here.

Assay [1] has as its target T1, Translocator protein (Rattus norvegicus, UniProt P16257). The experiment in a line: Inhibition of binding of [3H]-PK 11195 to peripheral-type benzodiazepine receptor (PBR) from rat cortex homogenate.
Assay [2] concerns the target T1, Translocator protein. The assay can be described thus: Binding affinity against peripheral-type benzodiazepine receptor (PBR) from rat cortex homogenate using [3H]-PK 11195 as radioligand.
Assay [3] addresses T1, Translocator protein. The experiment in a line: Displacement [3H]-PK 11195 from rat adrenal peripheral-type benzodiazepine receptor (PBR).
The target of assay [4] is T1, Translocator protein. The assay can be described thus: Displacement of [3H]-Ro- 5-4864 from rat adrenal peripheral-type benzodiazepine receptor (PBR).

In general, IC50 refers to the point on the concentration scale where inhibition reaches its midpoint. The low end stands for greater potency in that assay, the high end for weaker potency in that assay. In general, Ki refers to the equilibrium dissociation constant of an inhibitor or competing ligand from its target. A high value points to a looser hold on the target.

SMILES strings stand for the structures.

T1 sequence (P16257 whole entry, looked up): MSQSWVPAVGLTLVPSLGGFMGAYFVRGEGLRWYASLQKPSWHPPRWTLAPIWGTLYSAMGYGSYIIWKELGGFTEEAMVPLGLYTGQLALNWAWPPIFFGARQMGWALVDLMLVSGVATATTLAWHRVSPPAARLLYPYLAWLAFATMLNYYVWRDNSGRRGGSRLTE

For the compound `CC(=O)OCC1=C(c2ccccc2)Oc2ccccc2-n2cccc21`, on Translocator protein [1], the IC50 stood at 1930 nM. Moreover, the affinity at Translocator protein [2] corresponds to a Ki of 754 nM.
For the compound `CN(C)C(=O)OC1=C(c2ccc(N=[N+]=[N-])cc2)Oc2ccccc2-n2cccc21`, the concentration for half-maximal inhibition (IC50) on Translocator protein [1] is 3.6 nM. Further, the inhibition constant Ki on Translocator protein [3] was determined as 4.8 nM; at Translocator protein [4], 3.6 nM; on Translocator protein [2], 1.4 nM.
`CCC1=C(OC(=O)N(C)C)c2cccn2-c2ccccc2O1` came in with an IC50 on Translocator protein [1] of 589 nM. At Translocator protein [2], this compound registered a Ki of 230 nM.
In turn, `CCN(CC)C(=O)OC1=C(c2ccccc2)Oc2ccccc2-n2cccc21` had an IC50 on Translocator protein [1] of 0.68 nM. Besides, affinity on Translocator protein [2] was put at a Ki of 0.26 nM.
On to `CC(=O)OC1=C(c2ccc(Cl)cc2)Sc2ccccc2-n2cccc21`, for which, on Translocator protein [2], affinity was put at a Ki of 11.7 nM.
On Translocator protein [1], `CC(=O)OC1=C(c2ccccc2)Oc2cc3ccccc3cc2-n2cccc21` had an IC50 of 278 nM. This compound gave a Ki at Translocator protein [2] of 108 nM.
As for `CN(C)C(=O)OC1=C(c2ccccc2)Sc2c(Cl)cccc2-n2cccc21`, the Ki at Translocator protein [3] was found to be 2.5 nM; on Translocator protein [4] it was 2.6 nM; on Translocator protein [2] it was 1.8 nM.
With `CCC1=C(OC(C)=O)c2cccn2-c2ccccc2O1`, at Translocator protein [1], the half-maximal inhibitory concentration (IC50) is > 5000 nM.
Take `COc1ccc(C2=C(OC(=O)c3cccnc3)c3cccn3-c3ccccc3S2)cc1`: at Translocator protein [1], the half-inhibitory concentration (IC50) is > 100000 nM.
Regarding `CN(C)C(=O)OC1=C(c2ccccc2)Sc2ccccc2-n2cccc21`, the Ki on Translocator protein [2] is 3.5 nM.
Compound `CC(=O)C1=C(c2ccccc2)Oc2ccccc2-n2cccc21` yielded a half-inhibitory concentration (IC50) at Translocator protein [1] of 64.6 nM. The same compound gave a Ki on Translocator protein [2] of 25.2 nM.
In turn, `CC(=O)OC1=C(c2ccccc2)Sc2cc(C)ccc2-n2cccc21` yielded an inhibitory constant (Ki) on Translocator protein [2] of 44 nM.
With `CCN(CC)C(=O)OC1=C(c2ccc(C)cc2)Oc2ccccc2-n2cccc21`, the IC50 on Translocator protein [1] came to 0.94 nM. Besides, the inhibitory constant (Ki) was 1.9 nM on Translocator protein [3], 1.9 nM at Translocator protein [4] and 0.36 nM at Translocator protein [2].
For `O=C(OC1=C(c2ccccc2)Oc2ccccc2-n2cccc21)C1CCCCC1`, the IC50 at Translocator protein [1] stood at 81.9 nM. The same compound yielded an inhibition constant Ki at Translocator protein [2] of 32 nM.
Turning to `CC(=O)OC1=C(c2ccc3ccccc3c2)Oc2ccccc2-n2cccc21`, the IC50 at Translocator protein [1] came out at 76.6 nM. At Translocator protein [2], this compound came in with a Ki of 30 nM.
The compound `CN(C)C(=O)OC1=C(c2ccccc2)Oc2c(Cl)cccc2-n2cccc21` registered an IC50 at Translocator protein [1] of 1.3 nM. For the same compound, affinity on Translocator protein [2] was put at a Ki of 0.51 nM.
As for `CC(=O)OC1=C(c2ccccc2)Sc2ccc(C)cc2-n2cccc21`, the inhibitory constant (Ki) on Translocator protein [2] stood at 263 nM.
With `CCN(CC)C(=S)OC1=C(c2ccccc2)Oc2ccccc2-n2cccc21`, the 50% inhibitory concentration (IC50) at Translocator protein [1] came to 3.8 nM. The same compound showed an inhibitory constant (Ki) on Translocator protein [2] of 1.5 nM.
The compound `CC(=O)OC1=C(c2ccc(C)cc2)Oc2ccccc2-n2cccc21` had an IC50 on Translocator protein [1] of 2.3 nM. Further, the Ki on Translocator protein [3] was 2.8 nM; on Translocator protein [4], 1.7 nM; at Translocator protein [2], 0.91 nM.
As to `CC(=O)OC1=C(c2ccccc2)Oc2ccccc2-n2cccc21`, at Translocator protein [1], the IC50 stood at 12.1 nM. The compound also came in with an inhibition constant (Ki) at Translocator protein [2] of 4.7 nM.
Compound `CC(=O)OC1=C(c2ccccc2)Sc2ccccc2-n2cccc21` returned an inhibition constant (Ki) on Translocator protein [2] of 7.6 nM.
Consider `COC(=O)C1=C(c2ccccc2)Oc2ccccc2-n2cccc21`, for which the IC50 at Translocator protein [1] stood at 148 nM. On Translocator protein [2], the Ki amounted to 57.8 nM.
